Data: PMC4366154, “Easy to Use Plastic Optical Fiber-Based Biosensor for Detection of Butanal” (PLoS ONE, 2015)

Molecular target: T1, porcine odorant-binding protein (pOBP) (Sus scrofa, UniProt P81245)
T1 construct: recombinant in E. coli BL21-DE3 from pGEX2TK as GST fusion, GST cut off on column with thrombin
T1 sequence (P81245 1-157): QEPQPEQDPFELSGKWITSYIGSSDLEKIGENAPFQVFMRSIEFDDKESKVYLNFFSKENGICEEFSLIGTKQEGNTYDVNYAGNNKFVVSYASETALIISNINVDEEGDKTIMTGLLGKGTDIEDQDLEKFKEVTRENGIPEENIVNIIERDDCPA
Assay: direct fluorescence titration, emission at […] nm
Conditions: 20 mM Tris-HCl pH 7.8, 1.0 μM pOBP, overnight at 4 °C

Nc1cccc2cc3ccccc3cc12 [1-amino-anthracene]
direct fluorescence titration, emission at 480 nm: direct titrations using the fluorescent ligand 1-amino-anthracene (AMA)
